Assay results as given in patent publication US4094984A, “6-Phenyl-8-bromo-4H-s-triazolo-[3,4C]-thieno-[2,3E]-1,4-diazepines and salts thereof” (Boehringer Ingelheim GmbH, priority 1974, dated 1978).

Key:
[1] = test system: lethal effect of 125 mgm/kg of pentylenetetrazole; assay: Pentetrazole antagonism test (anticonvulsive activity); assay type: in vivo, Mouse; albino mice (NMRI); settings: po, 1 h; mouse; p.o.; 125 mgm/kg pentylenetetrazole i.p. one hour after test compound; values graphically determined
Procedure: (§1) 1. Pentetrazole antagonisim [M. I. Gluckmann, Curr. Ther. Res. 7, 721 (1965)]. The median effective dose (ED50) of the test compound is determined which cancels the lethal effect of 125 mgm/kg of pentylenetetrazole in 50% of the test animals; the pentylenetetrazole is administered intraperitoneally one hour after administration of the test compound.
(§2) Albino mice (NMRI) having a body weight of 20 to 25 gm or albino rats (FW-49) having a body weight of 140 to 200 gm were used as the test animals, and the test compounds were administered perorally as a suspension in olive oil by means of an esophageal sound.

[2] = Toxicity, median lethal dose (Litchfield and Wilcoxon); design: species or system Mouse; albino mice (NMRI); settings: in vivo, po, mouse; for selectivity ratio: p.o., LD50 over pentylenetetrazole antagonism ED50, read-out: Therap. Index LD50:ED50
Procedure: 5. Toxicity [Litchfield and Wilcoxon, J. Pharmacol. Exp. Therap. 96, 99(1949)]. Determination of median lethal dose (LD50).
as §2

[3] = test system: warm-blooded animals, such as mice and rats; assay: Standard pharmacodynamic test methods (pentetrazole antagonism, electroshock, conflicting situation, fighting test); assay type: in vivo; settings: in words
Procedure: The above-indicated pharmacodynamic properties of the compounds of this invention were ascertained by means of various standard test methods, namely the following:
as §1
2. Electroshock [J. E. P. Tomann et al, J. Neuro-Physiol. 9, 231 (1946)].
3. Conflicting Situation (Inhibition of Passive Avoidance Test) [J. Geller, Arch. Int. Pharmacodyn. 149,243 (1964)].
4. Fighting Test (Suppression of isolation-induced aggressiveness in mice) [Wirth et al; Arch. Int. Pharmcodyn. 115, 1-31 (1958)].
as §2

SMILES	ED50 [1]	LD50 [2]	selectivity ratio [2]	effectiveness among the compounds of formula I [3]
Cc1nnc2n1-c1sc(Br)cc1C(c1ccccc1Cl)=NC2 [A, 8-bromo-6-(o-chlorophenyl)-1-methyl-4H-s-triazolo [3,4c]thieno[2,3e]1,4-diazepine]	0.07 mg/kg	> 3500 mg/kg	> 50000	particularly effective
Cc1nnc2n1-c1sc(Br)cc1C(c1ccccc1F)=NC2 [B, 8-bromo-6-(o-fluorophenyl)-1-methyl-4H-s-triazolo[3,4c]thieno[2,3e]1,4-diazepine]	0.15 mg/kg	> 3300 mg/kg	> 22000	–
Cc1nnc2n1-c1sc(Br)cc1C(c1ccccc1Br)=NC2 [C, 8-bromo-6-(o-bromophenyl)-1-methyl-4H-s-triazolo[3,4c]thieno[2,33]1,4-diazepine]	0.12 mg/kg	> 3500 mg/kg	> 29200	particularly effective
Cc1nnc2n1-c1sc(Br)cc1C(c1ccccc1)=NC2 [D, 8-bromo-6-phenyl-1-methyl-4H-s-triazolo[3,4]thieno[2,3e]1,4-diazepine]	0.8 mg/kg	–	–	–
CCc1cc2c(s1)-n1c(C)nnc1CN=C2c1ccccc1Cl [E, 8-ethyl-6-(o-chlorophenyl)-1-methyl-4H-s-triazolo[3,4c]thieno[2,3e]-1,4-diazepine, reference compound]	0.7 mg/kg	3070 mg/kg	4390	–
Cc1nnc2n1-c1sc(Cl)cc1C(c1ccccc1Cl)=NC2 [F, 8-chloro-6-(o-chlorophenyl)-1-methyl-4H-s-triazolo[3,4c]thieno[2,3e]1,4-diazepine, reference compound]	1 mg/kg	2300 mg/kg	2300	–
Cc1nnc2n1-c1sc(Cl)cc1C(c1ccccc1Br)=NC2 [G, 8-chloro-6-(o-bromophenyl)-1-methyl-4H-s-triazolo[3,4c]thieno[2,3e]1,4-diazepine, reference compound]	0.7 mg/kg	2200 mg/kg	3140	–
Cc1nnc2n1-c1sc(Cl)cc1C(c1ccccc1)=NC2 [H, 8-chloro-6-phenyl-1-methyl-4H-s-triazolo[3,4c]thieno[2,3e]1,4-diazepine, reference compound]	3 mg/kg	–	–	–
